Laboratory results published in the supplement of paper PMC4862054.
Where “and” joins values, the source holds several entries; their conditions need not be identical. Identical values can stand only once.

What was measured:
Experiment in all cases: normalised viability (% of control), CellTiter-Blue; higher = more viable cells (about 100 = DMSO control)
Settings in all cases: incubation time: 72 h
BT-549 = tested on: BT-549
Method in brief: (§1)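 After 72 h on compound-loaded 384-well plates, breast cancer cell lines received 2.5 µl CellTiter-Blue reagent for 2 h at 37 °C. Fluorescence at 560/590 nm was scaled per plate so that vehicle was 100 and a positive kill control was 0. The value stands for normalised viability at a single listed concentration of the series.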

BT-474 = tested on: BT-474
Method in brief: as §1

SK-BR-3 = tested on: SK-BR-3
Method in brief: as §1

Hs578T [1] = tested on: Hs578T
Method in brief: as §1

HCC1143 = tested on: HCC1143
Method in brief: as §1

MDA-MB-468 [2] = tested on: MDA-MB-468
Method in brief: as §1

HCC1599 [3] = tested on: HCC1599
Method in brief: as §1

CAL-148 [4] = tested on: CAL-148
Method in brief: as §1

MDA-MB-453 = tested on: MDA-MB-453
Method in brief: as §1

CAL-85-1 [5] = tested on: CAL-85-1
Method in brief: as §1

HDQ-P1 [6] = tested on: HDQ-P1
Method in brief: as §1

HCC1937 = tested on: HCC1937
Method in brief: as §1

MFM-223 = tested on: MFM-223
Method in brief: as §1

DU-4475 = tested on: DU-4475
Method in brief: as §1

CAL-51 [7] = tested on: CAL-51
Method in brief: as §1

CAL-120 [8] = tested on: CAL-120
Method in brief: as §1

MDA-MB-231 = tested on: MDA-MB-231
Method in brief: as §1

MDA-MB-436 [9] = tested on: MDA-MB-436
Method in brief: as §1

Hs578T [10] = tested on: Hs578T; remark: listed apart in the source
Method in brief: as §1

MDA-MB-468 [11] = tested on: MDA-MB-468; remark: listed apart in the source
Method in brief: as §1

HCC1599 [12] = tested on: HCC1599; remark: listed apart in the source
Method in brief: as §1

CAL-148 [13] = tested on: CAL-148; remark: listed apart in the source
Method in brief: as §1

CAL-85-1 [14] = tested on: CAL-85-1; remark: listed apart in the source
Method in brief: as §1

HDQ-P1 [15] = tested on: HDQ-P1; remark: listed apart in the source
Method in brief: as §1

CAL-51 [16] = tested on: CAL-51; remark: listed apart in the source
Method in brief: as §1

CAL-120 [17] = tested on: CAL-120; remark: listed apart in the source
Method in brief: as §1

MDA-MB-436 [18] = tested on: MDA-MB-436; remark: listed apart in the source
Method in brief: as §1

COc1ccc(-c2cc3c(C)nc(N)nc3n([C@H]3CC[C@H](OCCO)CC3)c2=O)cn1
Settings | normalised viability [%]
BT-474, 10 nM | 91.8
BT-474, 1000 nM | 14.1
BT-474, 10000 nM | 0.59
BT-549, 10 nM | 86.3
BT-549, 1000 nM | 19.1
BT-549, 10000 nM | 6.84
CAL-51 [7], 3 nM | 99.7
CAL-51 [7], 30 nM | 89.1
CAL-51 [7], 100 nM | 59
CAL-51 [16], 10 nM | 93.3
CAL-85-1 [5], 3 nM | 102
CAL-85-1 [5], 30 nM | 89.7
CAL-85-1 [5], 100 nM | 84.5
CAL-85-1 [14], 10 nM | 95.3
CAL-120 [8], 10 nM | 107
CAL-120 [8], 1000 nM | 21
CAL-120 [8], 10000 nM | 11.3
CAL-120 [17], 100 nM | 74.9
CAL-148 [4], 3 nM | 87.6
CAL-148 [4], 30 nM | 93
CAL-148 [4], 100 nM | 78.6
CAL-148 [13], 10 nM | 98.1
DU-4475, 3 nM | 109
DU-4475, 30 nM | 96.7
DU-4475, 100 nM | 89
HCC1143, 10 nM | 111
HCC1143, 1000 nM | 30.4
HCC1143, 10000 nM | 15
HCC1599 [3], 10 nM | 115
HCC1599 [3], 1000 nM | 35.1
HCC1599 [3], 10000 nM | 28.2
HCC1599 [12], 100 nM | 73.6
HCC1937, 10 nM | 68.4
HCC1937, 1000 nM | 28
HCC1937, 10000 nM | 30.2
HDQ-P1 [6], 3 nM | 76.7
HDQ-P1 [6], 30 nM | 81.6
HDQ-P1 [6], 100 nM | 39
HDQ-P1 [15], 10 nM | 82
Hs578T [1], 10 nM | 96.1
Hs578T [1], 1000 nM | 17.9
Hs578T [1], 10000 nM | 3.2
Hs578T [10], 100 nM | 60.5
MDA-MB-231, 10 nM | 84.7
MDA-MB-231, 1000 nM | 16.7
MDA-MB-231, 10000 nM | 8.35
MDA-MB-436 [9], 10 nM | 103
MDA-MB-436 [9], 1000 nM | 15.8
MDA-MB-436 [9], 10000 nM | 7.22
MDA-MB-436 [18], 100 nM | 80.6
MDA-MB-453, 3 nM | 103
MDA-MB-453, 30 nM | 66.5
MDA-MB-453, 100 nM | 48.5
MDA-MB-468 [2], 10 nM | 92.7
MDA-MB-468 [2], 1000 nM | 21.5
MDA-MB-468 [2], 10000 nM | 6.53
MDA-MB-468 [11], 100 nM | 77.3
MFM-223, 10 nM | 92
MFM-223, 1000 nM | 16
MFM-223, 10000 nM | 7.1
SK-BR-3, 10 nM | 82.6
SK-BR-3, 1000 nM | 10.6
SK-BR-3, 10000 nM | 6.34

O=S(=O)(c1cccc2cnccc12)N1CCCNCC1 [Fasudil]
Settings | normalised viability [%]
BT-474, 10 nM | 112
BT-474, 1000 nM | 112
BT-474, 10000 nM | 126
BT-549, 10 nM | 93.3
BT-549, 1000 nM | 95.2
BT-549, 10000 nM | 107
CAL-51 [7], 3 nM | 118
CAL-51 [7], 30 nM | 108
CAL-51 [7], 100 nM | 116
CAL-51 [16], 10 nM | 112
CAL-85-1 [5], 3 nM | 96.6
CAL-85-1 [5], 30 nM | 90.4
CAL-85-1 [5], 100 nM | 93.3
CAL-85-1 [14], 10 nM | 97.7
CAL-120 [8], 10 nM | 87.9
CAL-120 [8], 1000 nM | 84.4
CAL-120 [8], 10000 nM | 92
CAL-120 [17], 100 nM | 89.4
CAL-148 [4], 3 nM | 81
CAL-148 [4], 30 nM | 90.1
CAL-148 [4], 100 nM | 90.2
CAL-148 [13], 10 nM | 93.1
DU-4475, 3 nM | 100
DU-4475, 30 nM | 109
DU-4475, 100 nM | 101
HCC1143, 10 nM | 85.1
HCC1143, 1000 nM | 96.2
HCC1143, 10000 nM | 80.2
HCC1599 [3], 10 nM | 99.9
HCC1599 [3], 1000 nM | 102
HCC1599 [3], 10000 nM | 117
HCC1599 [12], 100 nM | 100
HCC1937, 10 nM | 122
HCC1937, 1000 nM | 105
HCC1937, 10000 nM | 90.6
HDQ-P1 [6], 3 nM | 111
HDQ-P1 [6], 30 nM | 99
HDQ-P1 [6], 100 nM | 117
HDQ-P1 [15], 10 nM | 103
Hs578T [1], 10 nM | 98.4
Hs578T [1], 1000 nM | 114
Hs578T [1], 10000 nM | 116
Hs578T [10], 100 nM | 97.5
MDA-MB-231, 10 nM | 98.8
MDA-MB-231, 1000 nM | 110
MDA-MB-231, 10000 nM | 127
MDA-MB-436 [9], 10 nM | 83.5
MDA-MB-436 [9], 1000 nM | 108
MDA-MB-436 [9], 10000 nM | 107
MDA-MB-436 [18], 100 nM | 100
MDA-MB-453, 3 nM | 112
MDA-MB-453, 30 nM | 116
MDA-MB-453, 100 nM | 109
MDA-MB-468 [2], 10 nM | 106
MDA-MB-468 [2], 1000 nM | 110
MDA-MB-468 [2], 10000 nM | 105
MDA-MB-468 [11], 100 nM | 106
MFM-223, 10 nM | 102
MFM-223, 1000 nM | 89
MFM-223, 10000 nM | 77.7
SK-BR-3, 10 nM | 94.7
SK-BR-3, 1000 nM | 95.7
SK-BR-3, 10000 nM | 109

CCN(CC)CCNC(=O)c1c(C)[nH]c(/C=C2\C(=O)Nc3ccc(F)cc32)c1C [Sunitinib]
Settings | normalised viability
BT-474, 1 nM | 110% and 97.1%
BT-474, 100 nM | 115% and 92.5%
BT-549, 1 nM | 90.8% and 103%
BT-549, 100 nM | 92.6% and 88.2%
BT-549, 1000 nM | 89.9% and 111%
CAL-51 [7], 0.3 nM | 116% and 93.3%
CAL-51 [7], 10 nM | 107% and 91.1%
CAL-51 [16], 1 nM | 110% and 90.5%
CAL-85-1 [5], 0.3 nM | 92% and 101%
CAL-85-1 [5], 3 nM | 90.5% and 104%
CAL-85-1 [5], 10 nM | 98.1% and 98.9%
CAL-85-1 [14], 1 nM | 95.3% and 104%
CAL-120 [8], 1000 nM | 88.6% and 104%
CAL-120 [17], 10 nM | 91.8% and 108%
CAL-148 [4], 0.3 nM | 92.3% and 103%
CAL-148 [4], 3 nM | 90.1% and 97.4%
CAL-148 [4], 10 nM | 89.6% and 111%
CAL-148 [13], 1 nM | 96.4% and 97.8%
DU-4475, 0.3 nM | 99.7% and 88.2%
DU-4475, 3 nM | 92.5% and 88.1%
DU-4475, 10 nM | 108% and 95.7%
HCC1143, 100 nM | 84.3% and 106%
HCC1599 [3], 1 nM | 113% and 97.3%
HCC1599 [3], 100 nM | 85.4% and 102%
HCC1599 [3], 1000 nM | 101% and 90.8%
HCC1599 [12], 10 nM | 125% and 105%
HCC1937, 1 nM | 93.7% and 84.2%
HCC1937, 100 nM | 82.3% and 102%
HCC1937, 1000 nM | 84.5% and 93.2%
HDQ-P1 [6], 0.3 nM | 101% and 95.9%
HDQ-P1 [6], 3 nM | 85.3% and 98.3%
HDQ-P1 [15], 1 nM | 103% and 99.8%
Hs578T [1], 1 nM | 106% and 100%
Hs578T [1], 100 nM | 103% and 113%
Hs578T [1], 1000 nM | 108% and 107%
Hs578T [10], 10 nM | 96.2% and 90.4%
MDA-MB-231, 1 nM | 90.4% and 86.8%
MDA-MB-231, 100 nM | 89% and 90.3%
MDA-MB-231, 1000 nM | 114% and 112%
MDA-MB-436 [9], 1 nM | 94.5% and 114%
MDA-MB-436 [9], 100 nM | 85.8% and 110%
MDA-MB-436 [9], 1000 nM | 98.5% and 108%
MDA-MB-436 [18], 10 nM | 102% and 107%
MDA-MB-453, 3 nM | 90.5% and 94.7%
MDA-MB-453, 10 nM | 95.2% and 82%
MDA-MB-468 [2], 1 nM | 104% and 89.3%
MDA-MB-468 [2], 100 nM | 104% and 95.4%
MDA-MB-468 [2], 1000 nM | 100%
MDA-MB-468 [11], 10 nM | 100% and 107%
MFM-223, 1 nM | 101% and 105%
MFM-223, 100 nM | 91.4% and 96.6%
MFM-223, 1000 nM | 62.7% and 68.1%
SK-BR-3, 1 nM | 94.8% and 101%
SK-BR-3, 100 nM | 98.3% and 96.8%
SK-BR-3, 1000 nM | 90.2% and 90.4%
